Among the data in BindingDB's records for doi:10.1016/j.bmc.2010.09.053 (Umr Cnrs 7201, 2012) are IC50 values, retold here.

The IC50 is the concentration that inhibits the measured activity by half. The low end stands for greater potency in that assay, the high end for weaker potency in that assay.

A short description of this test: Inhibition of bovine liver beta-glucosidase.

`C[C@@H]1CNC[C@@H](O)[C@@H](O)[C@@H]1O` yielded an IC50 of 244 µM.
